According to patent publication US7488749B2, “Therapy of diseases of the eye, the inner ear and the central nervous system” (Cevec Pharmaceuticals GmbH, priority 2002, dated 2009):
Where two headings read alike, the source gives them in different places.

What was measured:
Human RPE cells = assay: Formation of lipofuscin (auto-fluorescence) in RPE cells with tyrosinase inhibited by PTU; assay type: cell-based
Protocol: Human retinal pigment epithelium cells were isolated 2 hours post mortem from eyes of organ donors by incubation in 0.2% trypsin solution with 0.5 mM EDTA (if not indicated differently the reagents are from Sigma, Deisenhofen, Germany) for 30 minutes. The cells were centrifuged and cultivated in 24-well-plates (Nunc, Mainz, Germany) in Dulbeccos modified Eagle Medium with 15% foetal calf serum, 50 μg/ml gentamycin and 2.5 μg/ml amphotericin. The cells remain in primary culture (P0) for 3 weeks until confluence. Subsequent passaging was performed by trypsination of the cells in the respective time intervals. For the feeding with membranes of visual cells, cells originating from 3 different donors (passage 3, 6 and 16) were used. […]
The cells in group 1+2 were overlaid with about 2×10^6 outer segments of rods. […] After this, the cells were looked at under the fluorescence microscope (Axiovert, Zeiss, Oberkochem, Germany) with filters specific for the auto-fluorescence of the lipofuscein (excitation 360 nm, emission 540 nm, Feuerbacher Analysentechnik, Tübingen, Germany) and were photographed with a digital camera and saved using Openlab Software (Improvision, UK).

mRNA for catalase = assay: Catalase mRNA expression in the chorioidea-RPE-complex after zinc injection (real time RT-PCR); assay type: in vivo, rat
Protocol: After 6 and 24 hours the chorioidea-RPE-complex was isolated from the retina and sclera. The amount of catalase mRNA expression in the chorioidea-RPE-complex was quantified by real time RT-PCR with the SYBR Green I reaction system using an iCycler (Bio-Rad Laboratories, Hercules, Calif.). PCR primer (catalase: upper primer: TAGCCAGAAGAGAAACCCACAAACT (SEQ ID NO:1) and lower primer: TCCCTCGGTCGCTGAACAAGA (SEQ ID NO:2); GAPDH: upper primer: AACTTTGTGAAGCTCATTTCCTGGTAT (SEQ ID NO:3) and lower primer: CCT TGC TGG GCT GGG TGG T (SEQ ID NO:4)) were selected using the primer analysis software OLIGO®4.1 (National Biosciences, Plymoth, Minn., USA) that the primer specific melting temperature was between 58 and 60° C. […] The quantification data were calculated using the iCycler iQ System Software (Bio-Rad Laboratories, Hercules, Calif.). After subtraction of the PCR base line by the software, the linear logarithmic portion of the fluorescence was plotted versus the number of cycles to determine the cycle number (threshold cycle, CT) at which the threshold fluorescence for catalase and GAPDH as a reference was exceeded. Since the amplification effectivity of target and reference gene was approximately the same (delta CT<0.15) the comparative CT method was used for the quantification of the catalase in comparison GAPDH.

[1] = for zinc concentration of the chorioidea-RPE-complex: 24 hours after 40 mg/kg ZnCl2 intraperitoneally
Protocol: Two albino (Wistar) rats and two pigmented (Long Evans) rats were injected intraperitoneally with 40 mg/kg body weight ZnCl2. After 24 hours the chorioidea-RPE-complex was isolated from retina and sclera. Respective samples from untreated animals served as controls. The samples were weight directly into leak-proof PFA vessels (Savillex) (Microbalance Sartorius MC21S) and cracked by using ultrasound homogenisation for 24 hours at 30° C. with HNO3—H2O2 (suprapur grade reagents; Merck). After careful evaporation, the remains were solved in 2% HNO3 for 5 hours at 50° C. This solution was subsequently transferred to a 10 ml volumetric flask. The final clear solution contained 10 ng rhodamin (Rh)/ml and was refilled with 2% HNO3. The detection of zinc was performed by inductively coupled plasma mass spectrometry (ICP-MS, ELAN 6000 Perkin-Elmer/Sciex) and by using Rh as internal standard and a calibration with chemical reagents having the highest purity grade.

[2] = tested on: human amelanotic retinal pigment epithelium cells ARPE-19; assay: Survival of retinal pigment epithelium cells after lethal UVA radiation; assay type: cell-based; conditions: without melanin
Protocol: 30.000 human amelanotic retinal pigment epithelium cells ARPE-19 (American Type culture Collections, Manassas, Va., USA) were cultivated in a mixture of DMEM and F12 Medium (PAA Laboratories, Linz, Austria) with 10% foetal calf serum, gentamycin and amphotericin and were incubated with 1 mg/ml melanin from squids (Sepia officinalis, Sigma). After 4 hours, the non-phagocytosed melanin was thoroughly washed away. After 24 hours the artificially pigmented cells were incubated with 100 or 200 μmol ZnCl2 for 2 hours. Three days later, the cells were irradiated using a HRL, 125 W, lamp (Radium, Germany) for 1 hour. The UVA light portion was 18 mW/cm^2 at the surface of the cell culture liquid and was measured using a RM-12 UV radiometer (Dr. Gröbel, UV Elektronik, Ettlingen, Germany). Cells without melanin and zinc treatment with and without irradiation served as controls. After 2 further days, the number of surviving cells was counted in a Thoma-chamber.
In the following table the mean values of surviving cells from 3 independent experiments are indicated. The number of surviving cells after irradiation without melanin and/or zinc treatment was statistically compared with the number of surviving cells with treatment. That is were the p-value results from. […] The number of surviving cells war increased by the factor 7.4 in comparison to untreated cells.

Compound	auto-fluorescence specific for lipofuscin (Human RPE cells; group 1: 1 mM PTU, fed with membranes of visual cells on 15 successive days)	auto-fluorescence specific for lipofuscin (Human RPE cells; group 3: 1 mM PTU, not fed)	amount of mRNA for catalase (mRNA for catalase; 24 hours after 40 mg/kg ZnCl2 i.p.)	increase of mRNA for catalase (factor) (mRNA for catalase; six hours after 40 mg/kg ZnCl2 i.p., albino and pigmented rats compared)	final zinc concentration in pigmented rats relative to treated albinos (times higher) ([1]; after injection of zinc, 24 hours)	zinc concentration of the chorioidea-RPE-complex ([1]; albino (Wistar) rats) [µg/g]	zinc concentration of the chorioidea-RPE-complex ([1]; pigmented (Long Evans) rats) [µg/g]	increase of zinc concentration (factor) versus untreated ([1]; pigmented rats, 24 hours after injection of zinc)	number of surviving cells ([2]; with irradiation (UVA 18 mW/cm^2, 1 hour), 100 μmol Zn)	number of surviving cells ([2]; with irradiation, 200 μmol Zn)
NC(=S)Nc1ccccc1 [PTU, phenylthiourea]	intensive, golden auto-fluorescence specific for lipofuscin	no auto-fluorescence	–	–	–	–	–	–	–	–
[Cl-].[Cl-].[Zn+2] [zinc, ZnCl2]	–	–	again as high as without zinc injection	12	19	6.5	125	1.6	33333 ± 11547	41666 ± 16072
